Measured values published in US6974797B2, “Cross-linked glycopeptide-cephalosporin antibiotics” (Theravance, Inc., priority 2001, dated 2005).
≈ marks a conversion by molar mass, not a printed value.

Legend:
[1] = test system: Methicillin-resistant S. aureus (MRSA); test: Minimal inhibitory concentration (MIC90), broth microdilution, MRSA strains; format: cell-based, Staphylococcus aureus
Procedure: (§1) Minimal inhibitory concentration (MICs) assays were performed using the broth microdilution method set forth in NCCLS guidelines (see, NCCLS. 2000. Methods for Dilution Antimicrobial Susceptibility Tests for Bacteria That Grow Aerobically; Approved Standard—Fifth Ed., Vol. 20, No. 2). Bacterial strains were obtained from the American Type Tissue Culture Collection (ATCC), Stanford University Hospital (SU), Kaiser Permanente Regional Laboratory in Berkeley (KPB), Massachusetts General Hospital (MGH), the Centers for Disease Control (CDC), the San Francisco Veterans' Administration Hospital (SFVA) or the University of California San Francisco Hospital (UCSF). Vancomycin-resistant enterococci were phenotyped as Van A or Van B based on their sensitivity to teicoplanin. Some vancomycin-resistant enterococci that had been genotyped as Van A, Van B, Van C1 or Van C2 were also obtained from the Mayo Clinic.
(§2) In this assay, cryopreserved bacterial cultures of reference and clinical strains were streaked for isolation on appropriate agar medium (i.e., Trypticase Soy Agar, Trypticase Soy Agar with defibrinated sheep erthrocytes, Brain Heart Infusion Agar, Chocolate Agar). Following incubation to allow formation of colonies, these plates were sealed with parafilm and stored refrigerated for up to two weeks. […] The MIC was read visually as the lowest concentration well with no bacterial growth. […]

[2] = test system: Methicillin-resistant S. epidermitis (MRSE) and other coagulase-negative staphylococci; test: Minimal inhibitory concentration (MIC90), broth microdilution, MRSE and other coagulase-negative staphylococci; format: cell-based, Staphylococcus epidermidis
Procedure: as §1, §2

[3] = test system: methicillin-resistant S. aureus strains; test: Minimal inhibitory concentration (MIC), broth microdilution, individual MRSA strains; format: cell-based, Staphylococcus aureus
Procedure: as §1
In this assay, cryopreserved bacterial cultures of reference and clinical strains were streaked for isolation on appropriate agar medium (i.e., Trypticase Soy Agar, Trypticase Soy Agar with defibrinated sheep erthrocytes, Brain Heart Infusion Agar, Chocolate Agar). Following incubation to allow formation of colonies, these plates were sealed with parafilm and stored refrigerated for up to two weeks. For preparation of assay inocula and to ensure low variability, several colonies from a bacterial isolate cultured on the agar plates were pricked with an inoculating loop and aseptically transferred to Mueller-Hinton Broth (supplemented with divalent cations to required levels based on manufacturer's certification). The broth culture was grown overnight at 35° C., diluted in fresh prewarmed broth and grown to log phase; this is equivalent to a 0.5 MacFarland standard or 1×10^8 colony forming units per milliliter (CFU/mL). Not all cell suspensions, due to species variability, contained 1×10^8 CFU/mL when turbidity is equivalent to the MacFarland standard, therefore acceptable adjustments (based on NCCLS guidelines) were made in dilutions of different bacterial strains. […] The plates were then incubated 18-24 hours at 35° C. The MIC was read visually as the lowest concentration well with no bacterial growth. Bacterial growth is defined as more than three pinpoint colonies, a button of precipitated cells larger than 2 mm in diameter, or obvious turbidity.
Strains routinely tested in the initial screen included methicillin-sensitive Staphylococcus aureus (MSSA), methicillin-resistant Staphylococcus aureus (MRSA), Staphylococcus aureus producing penicillinase, methicillin-sensistive Staphylococcus epidermidis (MSSE), methicillin-resistant Staphylococcus epidermidis (MRSE), vancomycin-sensitive Enterococcus faecium (EFMVS), vancomycin-sensitive Enterococcus faecalis (EFSVS), vancomycin-resistant Enterococcus faecium also resistant to teicoplanin (EFMVR Van A), vancomycin-resistant Enterococcus faecium sensistive to teicoplanin (EFMVR Van B), vancomycin-resistant Enterococcus faecalis also resistant to teicoplanin (EFSVR Van A), vancomycin-resistant Enterococcus faecalis sensitive to teicoplanin (EFSVR Van B), penicillin-sensitive Streptococcus pneumoniae (PSSP) and penicillin-resistant Streptococcus pneumoniae (PSRP). Because of the inability of PSSP and PSRP to grow well in Mueller-Hinton broth, MICs with those strains were determined using either TS broth supplemented with defibrinated blood or Haemophilus test medium.

[4] = test system: MSSA 13709; test: Time-kill assay, MSSA 13709; format: cell-based, Staphylococcus aureus
Procedure: (§3) This time-kill assay is a method for measuring the rate of bactericidal activity of a test compound. […] A rapid time-kill is desirable to quickly prevent bacterial colonization and reduce host tissue damage.
(§4) Bacteria were diluted in prewarmed media in shake flasks and incubated with shaking (200 rpm, 35° C.). At 0, 1, 4, and 24 hours samples were withdrawn from the flasks and bacteria were enumerated by plate counting. Subsequent to the initial sampling, a compound to be assayed was added to the shake flask culture. Plate counts at these intervals previous to and following addition of the compound were expressed graphically in a time-kill curve.

[5] = test system: MRSA 33591; test: Time-kill assay, MRSA 33591; format: cell-based, Staphylococcus aureus
Procedure: as §3, §4

[6] = test system: MRSA 33591; test: In vivo efficacy in neutropenic mice (thigh infection); parameters: species or system Staphylococcus aureus; settings: neutropenic male CD-1 mice, MRSA 33591 thigh infection, iv, 24 hours post-treatment
Procedure: Animals (male CD-1 mice, 20-30 g) were acquired from Charles Rivers Laboratories (Gilroy, Calif.) and allowed access to food and water ad libitum. Neutropenia was induced via 200 mg/kg intraperitoneal (IP) injection of cyclophosphamide given four and two days prior to the inoculation of bacteria.
The organism used was either a susceptible or resistant strain of clinically relevant gram positive pathogens, such as methicillin-susceptible Staphylococcus aureus (MSSA 13709) and methicillin-resistant Staphylococcus aureus (MRSA 33591). The bacterial inoculum concentration was ˜10^6 CFU/mL. Animals were lightly anesthetized with isoflurane and […] of the bacterial inoculum was injected into the anterior thigh. One hour after the inoculation, animals were dosed intravenously with vehicle or the appropriate dose of the test compound. At 0 hours and 24 hours post-treatment, the animals were euthanized (CO2 asphyxiation) and the anterior and posterior thigh collected aseptically. The thigh was placed into 10 mL sterile saline and homogenized. Dilutions of the homogenate were plated onto triptic soy agar plates which were incubated overnight. The number of bacterial colonies on a given plate was multiplied by the dilution factor, divided by the thigh weight (in grams) and expressed as log CFU/g. […]

[7] = 5 wt. % dextrose buffer solution, titrated to pH 3, duplicate sample preparations
Procedure: The aqueous solubility of a compound of this invention was determined using the following procedure. A 5 wt. % dextrose buffer solution at pH 2.2 was prepared by adding 1 mL of 1 N hydrochloric acid (Aldrich) to 99 mL of a 5 wt. % aqueous dextrose solution (Baxter).
A 1 mg/mL stock solution for calibration standards was then prepared by dissolving 1 mg of the test compound in 1 mL of DMSO. This solution was vortexed for 30 seconds and then sonicated for 10 minutes. The stock solution was then diluted with water to prepare calibration standards having the following concentrations: 50, 125, 250, 375 and 500 ug/mL.
Each test compound (30 mg) was weighed into a Millipore non-sterile, Ultrafree-MC 0.1 um filter unit (Millipore UFC30VVOO) and a magnetic stir bar was added to each unit. The 5 wt. % dextrose buffer solution (750 uL) was then added to each unit and these mixtures were vortexed for 5 minutes. The filter units were then placed in an Eppendorf tube rack and the tube rack was placed on top of a magnetic stirrer. […]
The calibration standards and the test samples were analyzed by reverse-phase HPLC using the following conditions:
The solubility of each test sample was calculated by comparing the peak area of the test sample to the calibration curve and multiplying by the dilution factor.

| Compound | MIC ([3]; MRSA 33591) | MIC ([3]; MRSA MED-84) | MIC ([3]; MRSA MED-85) | MIC ([3]; MRSA MED-86) | MIC ([3]; MRSA MED-87) | MIC ([3]; MRSA MED-88) | MIC ([3]; MRSA MED-89) | MIC ([3]; MRSA MED-103) | MIC ([3]; MRSA MED-104) [µg/mL] | MIC ([3]; MRSA MED-107) | MIC ([3]; MRSA MED-110) [µg/mL] | MIC ([3]; MRSA MED-572) | further results |
| --- | --- | --- | --- | --- | --- | --- | --- | --- | --- | --- | --- | --- | --- |
| CNC(CC(C)C)C(=O)NC1C(=O)NC(CC(N)=O)C(=O)NC2C(=O)NC3C(=O)NC(C(=O)NC(C(=O)NCCCON=C(C(=O)NC4C(=O)N5C(C(=O)[O-])=C(C[n+]6ccccc6)CSC45)c4nc(N)sc4Cl)c4cc(O)cc(O)c4-c4cc3ccc4O)C(O)c3ccc(c(Cl)c3)Oc3cc2cc(c3OC2OC(CO)C(O)C(O)C2OC2CC(C)(N)C(O)C(C)O2)Oc2ccc(cc2Cl)C1O.Cl.Cl.Cl (centres unmarked) [Compound 1] | ≦0.1 μg/mL | ≦0.1 μg/mL | ≦0.1 μg/mL | ≦0.1 μg/mL | ≦0.1 μg/mL | ≦0.1 μg/mL | ≦0.1 μg/mL | ≦0.1 μg/mL | 0.10 | ≦0.1 μg/mL | 0.20 | ≦0.1 μg/mL | MIC90 (minimum inhibitory concentration for 90% of strains tested) ([1]; n = 53 strains): <0.1 µg/mL; MIC90 (minimum inhibitory concentration for 90% of strains tested) ([2]; MRSE and other coagulase-negative staphylococci, n = 34 strains): <0.1 µg/mL; bactericidal concentration (≧3 log decrease in bacterial cell numbers) ([4]; MSSA 13709, in 4 hours): ≤ 1 μg/mL; bactericidal concentration (≧3 log decrease in bacterial cell numbers) ([5]; MRSA 33591, in 4 hours): ≤ 1 μg/mL; ED50 (dose required to produce 50% of the maximum reduction in thigh titre) [6]: < 0.20 mg/kg; aqueous solubility [7]: > 47.9 mg/mL |
| CNC(CC(C)C)C(=O)NC1C(=O)NC(CC(N)=O)C(=O)NC2C(=O)NC3C(=O)NC(C(=O)NC(C(=O)NCCCON=C(C(=O)NC4C(=O)N5C(C(=O)[O-])=C(C[n+]6ccccc6)CSC45)c4csc(N)n4)c4cc(O)cc(O)c4-c4cc3ccc4O)C(O)c3ccc(c(Cl)c3)Oc3cc2cc(c3OC2OC(CO)C(O)C(O)C2OC2CC(C)(N)C(O)C(C)O2)Oc2ccc(cc2Cl)C1O (centres unmarked) [Compound 34, reference compound] | 0.17 µg/mL (≈ 0.0872 µM) | 0.29 µg/mL (≈ 0.149 µM) | 0.32 µg/mL (≈ 0.164 µM) | 0.29 µg/mL (≈ 0.149 µM) | 0.49 µg/mL (≈ 0.251 µM) | 0.34 µg/mL (≈ 0.174 µM) | 0.18 µg/mL (≈ 0.0924 µM) | 0.20 µg/mL (≈ 0.103 µM) | 0.58 (≈ 0.298 µM) | 0.34 µg/mL (≈ 0.174 µM) | 0.49 (≈ 0.251 µM) | <0.1 µg/mL |  |
| CN[C@H](CC(C)C)C(=O)N[C@H]1C(=O)N[C@@H](CC(N)=O)C(=O)N[C@H]2C(=O)N[C@H]3C(=O)N[C@H](C(=O)N[C@H](C(=O)O)c4cc(O)cc(O)c4-c4cc3ccc4O)[C@H](O)c3ccc(c(Cl)c3)Oc3cc2cc(c3O[C@@H]2O[C@H](CO)[C@@H](O)[C@H](O)[C@H]2O[C@H]2C[C@](C)(N)[C@H](O)[C@H](C)O2)Oc2ccc(cc2Cl)[C@H]1O [Vancomycin, vancomycin, reference compound] |  |  |  |  |  |  |  |  |  |  |  |  | MIC90 ([1]; Staphylococcus aureus, read-out: MIC90 (minimum inhibitory concentration for 90% of strains tested)): 3 µg/mL (≈ 2.07 µM); MIC90 ([2]; Staphylococcus epidermidis, MRSE, read-out: MIC90 (minimum inhibitory concentration for 90% of strains tested)): 4 µg/mL (≈ 2.76 µM); bactericidal concentration (≧3 log decrease in bacterial cell numbers) ([4]; MSSA 13709, in 24 hours): 4 μg/mL; bactericidal concentration (≧3 log decrease in bacterial cell numbers) ([5]; MRSA 33591, in 24 hours): 4 μg/mL; ED50 ([6]; Staphylococcus aureus, read-out: ED50 (dose required to produce 50% of the maximum reduction in thigh titre)): 9 mg/kg |
